For one assay, the system named is MV4-11 cells. Description: MV4-11 cell proliferation assay (Alamar Blue). The format is cell-based. Particulars: Homo sapiens, MV4-11, 72 h, 3 days incubation. Put shortly:
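Flt3-ITD MV4-11 cells were serum-starved overnight in Iscove's with 0.5% FBS, then given compound at 9 half-log concentrations (0.5% DMSO) for 3 days at 37° C. Alamar Blue reduction was read after 3 h by fluorescence (560/590 nm). IC50 is the mean of duplicates versus negative control.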
On the technique in general: Resazurin is reduced to fluorescent resorufin, in cell work by metabolically active cells.

The target of the next assay is T1, FLT3 kinase (Homo sapiens, UniProt P36888).
T1 construct: made in house; host or cells: T7 phage display or HEK-293 cells
T1 sequence (P36888 27-993): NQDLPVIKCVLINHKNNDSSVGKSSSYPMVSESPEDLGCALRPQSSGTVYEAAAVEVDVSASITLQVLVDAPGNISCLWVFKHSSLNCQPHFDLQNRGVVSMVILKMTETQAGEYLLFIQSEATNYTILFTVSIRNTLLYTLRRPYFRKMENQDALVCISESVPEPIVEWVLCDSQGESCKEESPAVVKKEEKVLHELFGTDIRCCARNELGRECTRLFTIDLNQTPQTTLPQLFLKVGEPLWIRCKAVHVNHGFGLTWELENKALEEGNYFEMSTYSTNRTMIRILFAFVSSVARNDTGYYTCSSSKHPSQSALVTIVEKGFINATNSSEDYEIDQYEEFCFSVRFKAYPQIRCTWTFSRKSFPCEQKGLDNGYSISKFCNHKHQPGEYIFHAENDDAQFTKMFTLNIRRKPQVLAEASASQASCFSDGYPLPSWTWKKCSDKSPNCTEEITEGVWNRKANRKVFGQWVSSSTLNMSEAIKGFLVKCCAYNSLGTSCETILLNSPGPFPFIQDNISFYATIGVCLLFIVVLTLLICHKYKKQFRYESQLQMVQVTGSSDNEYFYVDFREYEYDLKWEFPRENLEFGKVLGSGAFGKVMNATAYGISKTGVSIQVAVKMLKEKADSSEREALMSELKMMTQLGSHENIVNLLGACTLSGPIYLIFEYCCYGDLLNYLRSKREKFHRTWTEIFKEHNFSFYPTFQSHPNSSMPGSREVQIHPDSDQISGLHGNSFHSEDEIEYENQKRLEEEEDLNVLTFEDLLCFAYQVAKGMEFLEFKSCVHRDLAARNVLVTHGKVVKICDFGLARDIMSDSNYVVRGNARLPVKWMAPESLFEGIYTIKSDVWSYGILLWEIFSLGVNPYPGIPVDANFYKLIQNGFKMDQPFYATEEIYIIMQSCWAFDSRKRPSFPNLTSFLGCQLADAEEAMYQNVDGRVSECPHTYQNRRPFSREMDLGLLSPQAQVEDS
Description: Competition binding assay, FLT3 Kd. Put shortly:
(§1)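 Kinases expressed as T7 phage fusions or in HEK-293 cells with DNA tags competed with test compound for immobilized biotinylated affinity ligand on streptavidin beads. Binding ran 1 hour at room temperature in SeaBlock/PBS/Tween/DTT buffer. Bound kinase was eluted with non-biotinylated ligand and quantified by qPCR; Kd from eleven-point threefold dilutions.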

A further assay has as its target T2, KIT kinase (Homo sapiens, UniProt P10721).
T2 construct: made in house; host or cells: T7 phage display or HEK-293 cells
Description: Competition binding assay, KIT Kd. Put shortly:
as §1

A further assay concerns the target T3, CSF-1R kinase (Homo sapiens, UniProt P07333).
T3 construct: made in house; host or cells: T7 phage display or HEK-293 cells
Description: Competition binding assay, CSF-1R Kd. The procedure, abridged: as §1

The target in assay [1] is kinase panel containing either 359 or 386 distinct kinases. Description: Selectivity score S10 from competition binding against a panel of kinases. Particulars: compounds at 10 μM; for Kinase specificty: S(10)-386 panel: panel of 386 distinct kinases; for Kinase specificty: S(10)-359 panel: panel of 359 distinct kinases. As for the experimental part:
Competition binding assays used herein were developed, validated and performed as described in Fabian et al., Nature Biotechnology 2005, 23,329-336. Kinases were produced as fusions to T7 phage (See, Fabian et al. or WO04/015142) or alternatively, the kinases were expressed in HEK-293 cells and subsequently tagged with DNA for PCR detection (See, WO08/005,310). For the binding assays, streptavidin-coated magnetic beads were treated with biotinylated affinity ligands for 30 min at room temperature to generate affinity resins. The liganded beads were blocked with excess biotin and washed with blocking buffer (SeaBlock (Pierce), 1% BSA, 0.05% Tween 20, 1 mM DTT) to remove unbound ligand and to reduce non-specific binding. Binding reactions were assembled by combining kinase, liganded affinity beads, and test compounds in 1× binding buffer (20% SeaBlock, 0.17×PBS, 0.05% Tween 20, 6 mM DTT). Test compounds were prepared as 100× stocks in DMSO and diluted into the aqueous environment. Kds were determined using an eleven point threefold serial dilutions. DMSO or control compounds were was added to control assays lacking a test compound. Primary screen assays were performed in polypropylene 384-well plates in a final volume of 20-40 μL, while Kd determinations were performed in polystyrene 96-well plates in a final volume of 135 μL. The assay plates were incubated at room temperature with shaking for 1 hour to allow the binding reactions to reach equilibrium, and the affinity beads were washed extensively with wash buffer (1×PBS, 0.05% Tween 20) to remove unbound protein. The beads were then resuspended in elution buffer (1×PBS, 0.05% Tween 20, 0.5 μM non-biotinylated affinity ligand) and incubated at room temperature with shaking for 30 min. The kinase concentration in the eluates was measured by quantitative PCR.
A selectivity score (S10) is a quantitative measure of selectivity of a compound against a panel of kinases. An S10 was calculated for a compound by dividing the number of kinases found to have a percent of control (DMSO) less than 10 by the total number of distinct kinases tested (excluding mutant variants). Percent of control (POC) is calculated by subtracting the signal of the control compound (POC=0) from the signal of the test compound and dividing the outcome by the signal of DMSO (POC=100) minus the signal of the control compound. For the compounds disclosed herein, S10 scores were obtained by testing the compounds at 10 μM concentration in a kinase panel containing either 359 or 386 distinct kinases.

Each structure is given as a SMILES string.

T3 sequence (P07333 20-972): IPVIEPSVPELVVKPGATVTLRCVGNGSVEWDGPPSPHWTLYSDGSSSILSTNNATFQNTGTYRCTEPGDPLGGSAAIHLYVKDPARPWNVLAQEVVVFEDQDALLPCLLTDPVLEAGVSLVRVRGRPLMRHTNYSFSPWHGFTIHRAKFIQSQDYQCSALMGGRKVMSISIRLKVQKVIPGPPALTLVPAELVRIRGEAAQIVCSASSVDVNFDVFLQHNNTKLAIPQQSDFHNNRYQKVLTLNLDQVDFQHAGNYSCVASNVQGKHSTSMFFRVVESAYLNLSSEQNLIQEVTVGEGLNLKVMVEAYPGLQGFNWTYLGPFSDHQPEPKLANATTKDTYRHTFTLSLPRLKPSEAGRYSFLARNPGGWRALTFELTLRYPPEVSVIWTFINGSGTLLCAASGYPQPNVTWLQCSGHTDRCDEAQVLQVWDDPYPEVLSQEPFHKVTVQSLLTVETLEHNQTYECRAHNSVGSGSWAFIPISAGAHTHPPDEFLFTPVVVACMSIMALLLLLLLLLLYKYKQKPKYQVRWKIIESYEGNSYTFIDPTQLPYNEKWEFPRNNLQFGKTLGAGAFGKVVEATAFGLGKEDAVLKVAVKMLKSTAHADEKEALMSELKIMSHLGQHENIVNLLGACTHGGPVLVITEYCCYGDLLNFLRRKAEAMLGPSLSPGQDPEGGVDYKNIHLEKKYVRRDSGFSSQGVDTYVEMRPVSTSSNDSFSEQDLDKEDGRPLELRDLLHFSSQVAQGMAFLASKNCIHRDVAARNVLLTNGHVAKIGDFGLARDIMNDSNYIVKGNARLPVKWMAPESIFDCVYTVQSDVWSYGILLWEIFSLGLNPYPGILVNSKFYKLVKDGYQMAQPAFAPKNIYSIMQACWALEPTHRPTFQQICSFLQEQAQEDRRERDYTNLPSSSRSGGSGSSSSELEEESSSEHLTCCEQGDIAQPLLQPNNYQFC
T2 sequence (P10721 26-976): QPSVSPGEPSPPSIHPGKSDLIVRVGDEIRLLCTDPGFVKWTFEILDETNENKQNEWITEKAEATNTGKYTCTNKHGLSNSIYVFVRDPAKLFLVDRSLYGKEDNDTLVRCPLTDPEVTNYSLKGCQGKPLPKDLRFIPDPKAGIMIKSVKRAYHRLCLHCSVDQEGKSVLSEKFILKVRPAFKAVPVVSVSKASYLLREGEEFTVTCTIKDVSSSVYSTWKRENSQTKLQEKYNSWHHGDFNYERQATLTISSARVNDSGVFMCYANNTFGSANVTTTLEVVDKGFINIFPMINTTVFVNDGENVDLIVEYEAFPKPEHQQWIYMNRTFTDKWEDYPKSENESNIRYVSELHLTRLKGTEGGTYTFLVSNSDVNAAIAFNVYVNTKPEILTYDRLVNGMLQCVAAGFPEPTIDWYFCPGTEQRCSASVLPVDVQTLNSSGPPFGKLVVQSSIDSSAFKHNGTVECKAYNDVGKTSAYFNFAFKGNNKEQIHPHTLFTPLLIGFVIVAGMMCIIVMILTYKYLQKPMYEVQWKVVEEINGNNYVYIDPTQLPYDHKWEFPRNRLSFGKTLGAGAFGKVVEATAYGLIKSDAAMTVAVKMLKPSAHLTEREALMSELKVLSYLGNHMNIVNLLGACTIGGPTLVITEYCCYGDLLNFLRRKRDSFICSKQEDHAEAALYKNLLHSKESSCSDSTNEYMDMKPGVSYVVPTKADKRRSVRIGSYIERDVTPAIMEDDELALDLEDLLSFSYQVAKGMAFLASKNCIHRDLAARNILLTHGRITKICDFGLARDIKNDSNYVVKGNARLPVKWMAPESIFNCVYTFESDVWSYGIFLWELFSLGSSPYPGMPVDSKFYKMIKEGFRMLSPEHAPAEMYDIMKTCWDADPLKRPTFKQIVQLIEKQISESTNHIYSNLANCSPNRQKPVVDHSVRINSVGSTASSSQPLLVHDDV

Turning to `CC1(c2cc(NC(=O)Cc3ccc(-c4ccc(N)nc4)cc3)no2)CCC1.CS(=O)(=O)O` [Example 144, 5-(4-(2-((5-(1-methylcyclobutyl)isoxazol-3-yl)amino)-2-oxoethyl)phenyl)pyridin-2-aminium methanesulfonate], in the assay on MV4-11 cells, the IC50 – broadly, the concentration needed to halve the response being measured – was not above 1 nM. The Kd (commonly the free concentration of one partner at which half of the binding sites on the other are occupied at equilibrium, for simple one-to-one binding) at FLT3 kinase was not above 1 nM; at KIT kinase, not above 1 nM; on CSF-1R kinase, not above 10 nM. Moreover, in assay [1], the “Kinase specificty: S(10)-386 panel” value is recorded as “B (0.1<B≦0.2 nM)”.
As to `CC(=O)O.CC1(c2cc(NC(=O)Cc3ccc(-c4ccc(N)nc4)cc3)no2)CC1(F)F` (centres unmarked) [Example 102, 5-(4-(2-((5-(2,2-difluoro-1-methylcyclopropyl)isoxazol-3-yl)amino)-2-oxoethyl)phenyl)pyridin-2-aminium acetate], in the assay on MV4-11 cells, the IC50 is not above 1 nM. Also, the Kd on FLT3 kinase was not above 1 nM; at KIT kinase, 1 to 10 nM; at CSF-1R kinase, not above 10 nM. In assay [1], the “Kinase specificty: S(10)-386 panel” value is on record as “B (0.1<B≦0.2 nM)”.
Regarding `CC(C)(C)c1cc(NC(=O)Cc2ccc(-c3cnc(N)c(C(F)(F)F)c3)cc2)no1.CS(=O)(=O)O` [Example 116, 5-(4-(2-(5-tert-butylisoxazol-3-ylamino)-2-oxoethyl)phenyl)-3-(trifluoromethyl)pyridin-2-aminium methanesulfonate], the IC50 in the assay with MV4-11 cells is not above 1 nM. Moreover, the Kd on FLT3 kinase was not above 1 nM; on KIT kinase, 1 to 10 nM; on CSF-1R kinase it was not above 10 nM. Besides, the “Kinase specificty: S(10)-386 panel” value in assay [1] is “B (0.1<B≦0.2 nM)”.
For the compound `CC(C)(c1cc(NC(=O)Cc2ccc(-c3ccc(N)nc3F)cc2)no1)C(F)(F)F.CS(=O)(=O)O` [Example 142, 6-fluoro-5-(4-(2-oxo-2-(5-(1,1,1-trifluoro-2-methylpropan-2-yl)isoxazol-3-ylamino)ethyl)phenyl)pyridin-2-aminium methanesulfonate], in the assay with MV4-11 cells, the IC50 was not above 1 nM. Besides, the figures for the dissociation constant Kd on FLT3 kinase, on KIT kinase and on CSF-1R kinase were not above 1 nM, 1 to 10 nM and not above 10 nM, respectively. Further, in assay [1], the “Kinase specificty: S(10)-386 panel” value is recorded as “A (A≦0.1)”.
For `COc1cc(-c2ccc(CC(=O)Nc3cc(C(C)(C)C)on3)cc2)cnc1N.CS(=O)(=O)O` [Example 136, 5-(4-(2-(5-tert-butylisoxazol-3-ylamino)-2-oxoethyl)phenyl)-3-methoxypyridin-2-aminium methanesulfonate], the IC50 in the assay on MV4-11 cells was not above 1 nM. Moreover, the values for the Kd at FLT3 kinase, on KIT kinase and on CSF-1R kinase were not above 1 nM, 1 to 10 nM and not above 10 nM, respectively. Moreover, the “Kinase specificty: S(10)-386 panel” value in assay [1] is reported as “B (0.1<B≦0.2 nM)”.
As for `CC(C)(C)c1cc(NC(=O)Cc2ccc(-c3cnc(N)c(Cl)c3)cc2)no1.CS(=O)(=O)O` [Example 115, 5-(4-(2-(5-tert-butylisoxazol-3-ylamino)-2-oxoethyl)phenyl)-3-chloropyridin-2-aminium methanesulfonate], in the assay with MV4-11 cells, the IC50 is not above 1 nM. The figures for the Kd on FLT3 kinase, on KIT kinase and on CSF-1R kinase were 1 to 10 nM, 1 to 10 nM and not above 10 nM, respectively. Moreover, in assay [1], the “Kinase specificty: S(10)-386 panel” value was “B (0.1<B≦0.2 nM)”.
`Cc1nc(N)ccc1-c1ccc(CC(=O)Nc2cc(C3(C)CC3)on2)cc1` [Example 162] yielded an IC50 in the assay with MV4-11 cells of 10 to 100 nM. In addition, the Kd at FLT3 kinase is not above 1 nM; at KIT kinase, not above 1 nM; on CSF-1R kinase it was not above 10 nM. For the same compound, in assay [1], the “Kinase specificty: S(10)-386 panel” value was “A (A≦0.1)”.
Compound `CC1(c2cc(NC(=O)Cc3ccc(-c4cnc(N)c(F)c4)cc3)no2)CC1.CS(=O)(=O)O` [Example 138, 3-fluoro-5-(4-(2-(5-(1-methylcyclopropyl)isoxazol-3-ylamino)-2-oxoethyl)phenyl)pyridin-2-aminium methanesulfonate] displayed an IC50 in the assay on MV4-11 cells not above 1 nM. Moreover, the Kd is not above 1 nM at FLT3 kinase, not above 1 nM on KIT kinase and not above 10 nM at CSF-1R kinase. The “Kinase specificty: S(10)-386 panel” value in assay [1] was “B (0.1<B≦0.2 nM)”.
In the assay on MV4-11 cells, `CC(C)Nc1ncc(-c2ccc(NC(=O)Nc3cc(C(C)(C)C)on3)nc2)cn1` [Example 65, 1-(5-tert-butylisoxazol-3-yl)-3-(5-(2-(isopropylamino)pyrimidin-5-yl)pyridin-2-yl)urea] registered an IC50 of 10 to 100 nM. Also, the equilibrium dissociation constant (Kd) at FLT3 kinase was not above 1 nM; at KIT kinase, not above 1 nM; on CSF-1R kinase it was not above 10 nM. Further, the “Kinase specificty: S(10)-359 panel” value in assay [1] was “B (0.1<B≦0.2 nM)”.
The compound `CC(C)(C)c1cc(NC(=O)Nc2ccc(-c3cnc(NC4CCOCC4)nc3)cn2)no1` [Example 63, 1-(5-tert-butylisoxazol-3-yl)-3-(5-(2-(tetrahydro-2H-pyran-4-ylamino)pyrimidin-5-yl)pyridin-2-yl)urea] gave an IC50 in the assay with MV4-11 cells of 10 to 100 nM. The Kd on FLT3 kinase is not above 1 nM; at KIT kinase it was not above 1 nM; on CSF-1R kinase it was not above 10 nM. The “Kinase specificty: S(10)-359 panel” value in assay [1] was “B (0.1<B≦0.2 nM)”.
As to `COCCNc1ncc(-c2ccc(NC(=O)Nc3cc(C(C)(C)C)on3)cc2)cn1` [Example 58, 1-(5-tert-butylisoxazol-3-yl)-3-{4-[2-(2-methoxyethylamino)pyrimidin-5-yl]-phenyl}urea], the IC50 in the assay with MV4-11 cells was in the range of 1 to 10 nM. For the same compound, the Kd is not above 1 nM on FLT3 kinase, not above 1 nM on KIT kinase and not above 10 nM at CSF-1R kinase. In addition, in assay [1], the “Kinase specificty: S(10)-359 panel” value is “B (0.1<B≦0.2 nM)”.
`CC(C)(C)c1cc(NC(=O)Cc2ccc(-c3cnc(N)c(F)c3)cc2)no1.CS(=O)(=O)O` [Example 94, 5-(4-(2-(5-tert-butylisoxazol-3-ylamino)-2-oxoethyl)phenyl)-3-fluoropyridin-2-aminium methanesulfonate] yielded an IC50 with MV4-11 cells not above 1 nM. The Kd at FLT3 kinase is 1 to 10 nM; on KIT kinase, 1 to 10 nM; on CSF-1R kinase it was not above 10 nM. For the same compound, the “Kinase specificty: S(10)-386 panel” value in assay [1] is “B (0.1<B≦0.2 nM)”.
As for `CC1(c2cc(NC(=O)Nc3ccc(-c4ccc(N)nc4)cc3)no2)CC1.CS(=O)(=O)O` [Example 106, 5-(4-(3-(5-(1-methylcyclopropyl)isoxazol-3-yl)ureido)phenyl)pyridin-2-aminium methanesulfonate], in the assay on MV4-11 cells, the IC50 was in the range of 1 to 10 nM. The results for the Kd at FLT3 kinase, on KIT kinase and at CSF-1R kinase were not above 1 nM, not above 1 nM and not above 10 nM, respectively. Besides, the “Kinase specificty: S(10)-386 panel” value in assay [1] was “A (A≦0.1)”.

The record behind these values is patent publication US20130035326A1 (AMBIT BIOSCIENCES CORPORATION, priority 2009, published 2013).
